ChEMBL document CHEMBL3758081, “Synthesis and biological evaluation of new naphthalene substituted thiosemicarbazone derivatives as potent antifungal and anticancer agents” (Eur J Med Chem, 2016)
Converted amounts (≈) assume the structure as drawn.

What was measured:
Fusarium solani = assay: Antifungal activity against Fusarium solani NRRL-13414 after 72 hrs by broth microdilution method; type: functional; conditions: NRRL-13414, 72 h
Salmonella typhimurium [1] = assay: Mutagenicity in Salmonella typhimurium TA100 at 2.5 mg/ml after 48 hrs by Ames MPF assay in absence of Sprague-Dawley rat liver S9 fraction; type: toxicity, organism-based; conditions: salmonella enterica subsp. enterica serovar typhimurium
Salmonella typhimurium [2] = assay: Mutagenicity in Salmonella typhimurium TA98 at 0.625 mg/ml after 48 hrs by Ames MPF assay in presence of Sprague-Dawley rat liver S9 fraction; type: toxicity, organism-based; conditions: salmonella enterica subsp. enterica serovar typhimurium, s9, 48 h
Salmonella typhimurium [3] = assay: Mutagenicity in Salmonella typhimurium TA100 at 0.625 mg/ml after 48 hrs by Ames MPF assay in absence of Sprague-Dawley rat liver S9 fraction; type: toxicity, organism-based; conditions: salmonella enterica subsp. enterica serovar typhimurium
Salmonella typhimurium [4] = assay: Mutagenicity in Salmonella typhimurium TA98 at 0.156 mg/ml after 48 hrs by Ames MPF assay in absence of Sprague-Dawley rat liver S9 fraction; type: toxicity, organism-based; conditions: salmonella enterica subsp. enterica serovar typhimurium
A549 = assay: Cytotoxicity against human A549 cells after 24 hrs by XTT assay; type: functional, cell-based; conditions: A549, 24 h
[Candida] zeylanoides = Antifungal activity against Candida zeylanoides NRLL Y-1774 after 48 hrs by broth microdilution method; type: functional; conditions: Dujonia zeylanoides, NRLL Y-1774, 48 h
Salmonella typhimurium [5] = assay: Mutagenicity in Salmonella typhimurium TA100 at 5 mg/ml after 48 hrs by Ames MPF assay in absence of Sprague-Dawley rat liver S9 fraction; type: toxicity, organism-based; conditions: salmonella enterica subsp. enterica serovar typhimurium
Salmonella typhimurium [6] = assay: Genotoxicity in Salmonella typhimurium TA1535/pSK1002 assessed as growth factor at 0.3125 mg/ml after 2 hrs by umuC assay in absence of Sprague-Dawley rat liver S9 fraction; type: toxicity, organism-based; conditions: salmonella enterica subsp. enterica serovar typhimurium
Candida tropicalis = assay: Antifungal activity against Candida tropicalis NRLL Y-12968 after 48 hrs by broth microdilution method; type: functional; conditions: NRLL Y-12968, 48 h
Salmonella typhimurium [7] = assay: Genotoxicity in Salmonella typhimurium TA1535/pSK1002 assessed as growth factor at 0.156 mg/ml after 2 hrs by umuC assay in absence of Sprague-Dawley rat liver S9 fraction; type: toxicity, organism-based; conditions: salmonella enterica subsp. enterica serovar typhimurium
Pichia kudriavzevii = assay: Antifungal activity against Candida krusei NRLL Y-7179 after 48 hrs by broth microdilution method; type: functional; conditions: NRLL Y-7179, 48 h
Salmonella typhimurium [8] = assay: Mutagenicity in Salmonella typhimurium TA100 at 0.156 mg/ml after 48 hrs by Ames MPF assay in absence of Sprague-Dawley rat liver S9 fraction; type: toxicity, organism-based; conditions: salmonella enterica subsp. enterica serovar typhimurium
Salmonella typhimurium [9] = assay: Mutagenicity in Salmonella typhimurium TA98 at 5 mg/ml after 48 hrs by Ames MPF assay in presence of Sprague-Dawley rat liver S9 fraction; type: toxicity, organism-based; conditions: salmonella enterica subsp. enterica serovar typhimurium, s9, 48 h
Salmonella typhimurium [10] = assay: Mutagenicity in Salmonella typhimurium TA98 at 0.156 mg/ml after 48 hrs by Ames MPF assay in presence of Sprague-Dawley rat liver S9 fraction; type: toxicity, organism-based; conditions: salmonella enterica subsp. enterica serovar typhimurium, s9, 48 h
[11] = Genotoxicity in Salmonella typhimurium TA1535/pSK1002 assessed as induction ratio at 0.625 mg/ml after 2 hrs by umuC assay in absence of Sprague-Dawley rat liver S9 fraction; type: toxicity, organism-based; conditions: salmonella enterica subsp. enterica serovar typhimurium
[12] = Genotoxicity in Salmonella typhimurium TA1535/pSK1002 assessed as induction ratio at 1.25 mg/ml after 2 hrs by umuC assay in presence of Sprague-Dawley rat liver S9 fraction; type: toxicity, organism-based; conditions: salmonella enterica subsp. enterica serovar typhimurium
Salmonella typhimurium [13] = assay: Genotoxicity in Salmonella typhimurium TA1535/pSK1002 assessed as growth factor at 2.5 mg/ml after 2 hrs by umuC assay in presence of Sprague-Dawley rat liver S9 fraction; type: toxicity, organism-based; conditions: salmonella enterica subsp. enterica serovar typhimurium, s9, 2 h
Aspergillus parasiticus = assay: Antifungal activity against Aspergillus parasiticus NRRL 465 after 72 hrs by broth microdilution method; type: functional; conditions: NRRL 465, 72 h
Salmonella typhimurium [14] = assay: Genotoxicity in Salmonella typhimurium TA1535/pSK1002 assessed as growth factor at 5 mg/ml after 2 hrs by umuC assay in presence of Sprague-Dawley rat liver S9 fraction; type: toxicity, organism-based; conditions: salmonella enterica subsp. enterica serovar typhimurium, s9, 2 h
Salmonella typhimurium [15] = assay: Mutagenicity in Salmonella typhimurium TA100 at 0.3125 mg/ml after 48 hrs by Ames MPF assay in absence of Sprague-Dawley rat liver S9 fraction; type: toxicity, organism-based; conditions: salmonella enterica subsp. enterica serovar typhimurium
Salmonella typhimurium [16] = assay: Mutagenicity in Salmonella typhimurium TA100 at 1.25 mg/ml after 48 hrs by Ames MPF assay in absence of Sprague-Dawley rat liver S9 fraction; type: toxicity, organism-based; conditions: salmonella enterica subsp. enterica serovar typhimurium
[17] = Genotoxicity in Salmonella typhimurium TA1535/pSK1002 assessed as induction ratio at 1.25 mg/ml after 2 hrs by umuC assay in absence of Sprague-Dawley rat liver S9 fraction; type: toxicity, organism-based; conditions: salmonella enterica subsp. enterica serovar typhimurium
Candida parapsilosis = assay: Antifungal activity against Candida parapsilosis NRLL Y-12696 after 48 hrs by broth microdilution method; type: functional; conditions: Lodderomyces parapsilosis, NRLL Y-12696, 48 h

| SMILES | MIC (Fusarium solani) [µg/mL] | fold change (FC) (Salmonella typhimurium [1]) | fold change (FC) (Salmonella typhimurium [2]) | fold change (FC) (Salmonella typhimurium [3]) | fold change (FC) (Salmonella typhimurium [4]) | IC50 (A549) [µg/mL] | MIC ([Candida] zeylanoides) [µg/mL] | fold change (FC) (Salmonella typhimurium [5]) | Activity (Salmonella typhimurium [6]) | MIC (Candida tropicalis) [µg/mL] | Activity (Salmonella typhimurium [7]) | MIC (Pichia kudriavzevii) [µg/mL] | fold change (FC) (Salmonella typhimurium [8]) | fold change (FC) (Salmonella typhimurium [9]) | fold change (FC) (Salmonella typhimurium [10]) | fold induction at 2 h, 0.625 mg/ml [11] | fold induction at 2 h, 1.25 mg/ml [12] | Activity (Salmonella typhimurium [13]) | MIC (Aspergillus parasiticus) [µg/mL] | Activity (Salmonella typhimurium [14]) | also measured |
| --- | --- | --- | --- | --- | --- | --- | --- | --- | --- | --- | --- | --- | --- | --- | --- | --- | --- | --- | --- | --- | --- |
| Fc1cccc(/C=N/NC(=S)Nc2cccc3ccccc23)c1F | 250 (≈ 732 µM) | 0.18 | 0.84 | 0.42 | 0.17 | 500 (≈ 1460 µM) | 250 (≈ 732 µM) | 0.42 | 0.115 | 250 (≈ 732 µM) | 0.14 | 250 (≈ 732 µM) | 0.48 | 0.56 | 0.94 | 1.75 | 1.42 | 0.231 | 250 (≈ 732 µM) | 0.24 | fold change (FC) (Salmonella typhimurium [15]): 0.36; fold change (FC) (Salmonella typhimurium [16]): 0.42; fold induction at 2 h, 1.25 mg/ml [17]: 1.63; MIC (Candida parapsilosis): 250 µg/mL (≈ 732 µM) |
| Fc1ccc(F)c(/C=N/NC(=S)Nc2cccc3ccccc23)c1 | 250 (≈ 732 µM) | 0.48 | 0.28 | 0.18 | 0.51 | 500 (≈ 1460 µM) | 250 (≈ 732 µM) | 0.36 | 0.168 | 250 (≈ 732 µM) | 0.142 | 250 (≈ 732 µM) | 0.6 | 0.65 | 0.65 | 6 | 2.81 | 0.236 | 250 (≈ 732 µM) | 0.228 | fold change (FC) (Salmonella typhimurium [15]): 0; fold change (FC) (Salmonella typhimurium [16]): 0.36; fold induction at 2 h, 1.25 mg/ml [17]: 1.79; MIC (Candida parapsilosis): 250 µg/mL (≈ 732 µM) |
